Laboratory results reported in article PMC5522529, “Mechanisms of Paradoxical Activation of AMPK by the Kinase Inhibitors SU6656 and Sorafenib” (Cell Chemical Biology, 2017).

Target: T1, AMPK-α1 AT mutant (Homo sapiens, UniProt Q13131, A167T)
T1 construct: we expressed FLAG-tagged full-length AMPK-α1 either as the WT or the AT mutant; expressed in transfected cells; host or cells: HEK293 (transient transfection)
Assay: AMPK activity of FLAG-tagged AMPK-α1 AT mutant expressed in HEK293 cells
Assay type: cell-based
Conditions: AT mutant FLAG-α1, 1 hr
Excerpt: The α1-KD was precipitated using anti-FLAG and endogenous AMPK complexes using anti-α1 antibody, and activity determined. Results (mean ± SD, n = 2) are expressed relative to activities in DMSO controls. (B) Western blots (n = 2) using the indicated antibodies; samples from experiment in (A). (C) DNAs encoding FLAG-tagged AMPK-α1 (WT or AT mutant) were expressed by transient transfection in HEK293 cells, the cells treated with increasing concentrations of SU6656 for 1 hr, AMPK complexes precipitated with anti-FLAG, and activity measured. Results (mean ± SD, n = 3) are expressed relative to the DMSO control. […] Results (mean ± SD, n = 3) are expressed relative to the DMSO control. **p < 0.01, ***p < 0.001, ****p < 0.0001, ^†††p < 0.001; ns, not significant.
To confirm that it acted by binding at the catalytic site, we expressed FLAG-tagged full-length AMPK-α1 either as the WT or the AT mutant.

T1 sequence (Q13131 whole entry A167T): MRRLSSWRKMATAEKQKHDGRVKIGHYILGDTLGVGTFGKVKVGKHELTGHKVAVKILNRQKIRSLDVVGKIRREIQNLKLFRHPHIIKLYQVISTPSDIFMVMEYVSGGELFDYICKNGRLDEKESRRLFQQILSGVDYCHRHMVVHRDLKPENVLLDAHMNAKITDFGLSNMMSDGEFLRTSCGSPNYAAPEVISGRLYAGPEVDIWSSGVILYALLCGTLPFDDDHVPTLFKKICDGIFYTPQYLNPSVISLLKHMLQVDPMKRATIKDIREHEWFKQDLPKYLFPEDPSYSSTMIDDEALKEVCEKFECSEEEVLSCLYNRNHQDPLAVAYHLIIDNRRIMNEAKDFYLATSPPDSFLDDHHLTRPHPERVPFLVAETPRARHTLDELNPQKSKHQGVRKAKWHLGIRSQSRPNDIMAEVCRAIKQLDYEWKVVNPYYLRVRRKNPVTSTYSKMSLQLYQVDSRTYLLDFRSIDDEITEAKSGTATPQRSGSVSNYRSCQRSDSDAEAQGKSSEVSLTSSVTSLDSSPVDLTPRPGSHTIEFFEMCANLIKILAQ
T1 sequence (P54619 whole entry partner): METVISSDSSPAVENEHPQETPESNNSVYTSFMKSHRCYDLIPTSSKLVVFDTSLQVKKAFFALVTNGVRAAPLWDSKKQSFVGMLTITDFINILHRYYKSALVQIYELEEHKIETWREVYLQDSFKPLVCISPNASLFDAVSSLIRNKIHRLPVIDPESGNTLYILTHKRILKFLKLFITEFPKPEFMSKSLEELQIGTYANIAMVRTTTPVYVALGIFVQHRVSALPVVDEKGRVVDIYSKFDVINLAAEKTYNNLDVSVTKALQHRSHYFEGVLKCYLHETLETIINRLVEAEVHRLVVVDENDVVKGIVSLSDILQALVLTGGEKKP

CN(C)S(=O)(=O)c1ccc2c(c1)/C(=C/c1cc3c([nH]1)CCCC3)C(=O)N2 [SU6656]
AMPK activity: greatly reduced
